Data reported in patent publication US20070049593A1 (priority 2004, published 2007).
Structures can show the parent of a compound that is named as a salt.

Target: T1, HCV polymerase (Hepatitis C virus genotype 1b, UniProt P26663)
T1 construct: a region encoding NS5B (J Virol 1991 March, 65(3), 1105-13, 544 amino acids after deletion of 47 amino acids on the C-terminal); 6xHis (C); made in house; host or cells: Escherichia coli
Assay: biochemical
Set-up: species or system HCV BK strain
Conditions: not given
Summary of the method: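 Recombinant HCV BK-strain NS5B (C-terminal 47 aa deleted, His6-tagged, E. coli), 0.5 μg/ml, run with 5 μg/ml in vitro-transcribed RNA template (polyU/3′X), ATP/GTP/CTP 50 μM, UTP 2 μM plus [3H]UTP, pH 7.5, 25° C, 90 min. TCA-precipitated RNA counted by scintillation; IC50 from activity with vs without compound.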

T1 sequence (P26663 2420-2963): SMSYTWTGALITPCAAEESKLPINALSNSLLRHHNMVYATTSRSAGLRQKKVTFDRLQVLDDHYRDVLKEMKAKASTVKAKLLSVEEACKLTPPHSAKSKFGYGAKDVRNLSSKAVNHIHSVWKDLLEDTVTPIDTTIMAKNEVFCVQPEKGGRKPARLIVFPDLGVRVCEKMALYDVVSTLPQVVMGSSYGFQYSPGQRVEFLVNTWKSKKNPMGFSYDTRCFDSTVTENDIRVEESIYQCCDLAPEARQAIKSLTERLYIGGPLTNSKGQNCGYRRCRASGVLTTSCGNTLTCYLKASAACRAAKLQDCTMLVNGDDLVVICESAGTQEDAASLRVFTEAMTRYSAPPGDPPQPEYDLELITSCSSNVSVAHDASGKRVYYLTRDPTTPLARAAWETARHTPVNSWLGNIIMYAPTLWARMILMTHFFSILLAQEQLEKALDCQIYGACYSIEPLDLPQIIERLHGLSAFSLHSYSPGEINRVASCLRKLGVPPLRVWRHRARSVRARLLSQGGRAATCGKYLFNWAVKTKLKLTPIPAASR

Q: `CC(C)(CN)NC(=O)c1ccc2c(C3CCCCC3)c3n(c2c1)CCOc1ccccc1-3` [Example 2-186, N-(2-amino-1,1-dimethylethyl)-12-cyclohexyl-6,7-dihydro-5-oxa-7a-azadibenzo[a,e]azulene-9-carboxamide monohydrochloride] was tested. Which IC50 did it give?
A: The IC50 was 100 to 1000 nM.

Q: How did the IC50 turn out when `CC(C)(CNCC(=O)O)NC(=O)c1ccc2c(C3CCCCC3)c3n(c2c1)CCOc1ccccc1-3` [Example 2-187, (2-[(12-cyclohexyl-6,7-dihydro-5-oxa-7a-azadibenzo[a,e]azulene-9-carbonyl)amino]-2-methylpropylamino)acetic acid] was run?
A: The IC50 was 100 to 1000 nM.

Q: `CC(C)(COc1ccc([N+](=O)[O-])cc1)NC(=O)c1ccc2c(C3CCCCC3)c3n(c2c1)CCOc1ccccc1-3` [Example 2-188, N-[1,1-dimethyl-2-(4-nitrophenoxy)ethyl]-12-cyclohexyl-6,7-dihydro-5-oxa-7a-azadibenzo[a,e]azulene-9-carboxamide] was tested. Which IC50 did it give?
A: The IC50 was 100 to 1000 nM.

Q: For `CN(C)CC(C)(NC(=O)c1ccc2c(C3CCCCC3)c3n(c2c1)CCOc1ccccc1-3)C(=O)O` (centres unmarked) [Example 2-189, 2-[(12-cyclohexyl-6,7-dihydro-5-oxa-7a-azadibenzo[a,e]azulene-9-carbonyl)amino]-3-dimethylamino-2-methylpropionic acid], which IC50 is on record?
A: Its IC50 is 100 to 1000 nM.

Q: With `CC(C)(NC(=O)c1ccc2c(C3CCCCC3)c3n(c2c1)CCOc1ccccc1-3)C(=O)N1CCC(O)CC1` [Example 2-190, N-[2-(4-hydroxypiperidin-1-yl)-1,1-dimethyl-2-oxoethyl]-12-cyclohexyl-6,7-dihydro-5-oxa-7a-azadibenzo[a,e]azulene-9-carboxamide] as the molecule, how does the IC50 read?
A: Its IC50 is under 100 nM.

Q: With `O=C(O)c1ccc2c(C3CCCCC3)c3n(c2c1)CCOc1c-3cccc1N(CCN1CCCCC1)Cc1ccccc1` [Example 2-191, 4-{N-benzyl-N-[2-(piperidin-1-yl)ethyl]amino}-12-cyclohexyl-6,7-dihydro-5-oxa-7a-azadibenzo[a,e]azulene-9-carboxylic acid dihydrochloride] as the molecule, how does the IC50 read?
A: The IC50 was under 100 nM.

Q: `O=C(Nc1ccc(O)cc1)c1ccc2c(C3CCCCC3)c3n(c2c1)CCOc1ccccc1-3` [Example 2-192, N-(4-hydroxyphenyl)-12-cyclohexyl-6,7-dihydro-5-oxa-7a-azadibenzo[a,e]azulene-9-carboxamide] was tested. Which IC50 did it give?
A: Its IC50 is under 100 nM.

Q: Which IC50 does the source give for `CC(C)(NC(=O)c1ccc2c(C3CCCCC3)c3n(c2c1)CCOc1ccccc1-3)C(=O)Nc1ccc(C(N)=O)cc1` [Example 2-193, N-[1-(4-carbamoylphenylcarbamoyl)-1-methylethyl]-12-cyclohexyl-6,7-dihydro-5-oxa-7a-azadibenzo[a,e]azulene-9-carboxamide] here?
A: The IC50 was under 100 nM.

Q: `CN(C)C(=O)c1ccc(NC(=O)C(C)(C)NC(=O)c2ccc3c(C4CCCCC4)c4n(c3c2)CCOc2ccccc2-4)cc1` [Example 2-194, N-[1-(4-dimethylcarbamoylphenylcarbamoyl)-1-methylethyl]-12-cyclohexyl-6,7-dihydro-5-oxa-7a-azadibenzo[a,e]azulene-9-carboxamide] was tested. Which IC50 did it give?
A: Its IC50 is under 100 nM.

Q: `CC(C)(NC(=O)c1ccc2c(C3CCCCC3)c3n(c2c1)CCOc1ccccc1-3)C(=O)Nc1ccc(CO)cc1` [Example 2-195, N-[1-(4-hydroxymethylphenylcarbamoyl)-1-methylethyl]-12-cyclohexyl-6,7-dihydro-5-oxa-7a-azadibenzo[a,e]azulene-9-carboxamide] was tested. Which IC50 did it give?
A: The IC50 was under 100 nM.

Q: Which IC50 does the source give for `COC(=O)c1ccc2nc(C(C)(C)NC(=O)c3ccc4c(C5CCCCC5)c5n(c4c3)CCOc3ccccc3-5)[nH]c2c1` [Example 2-196, methyl 2-{1-[(12-cyclohexyl-6,7-dihydro-5-oxa-7a-azadibenzo[a,e]azulene-9-carbonyl)amino]-1-methylethyl}-3H-benzimidazole-5-carboxylate] here?
A: The IC50 was under 100 nM.

Q: How did the IC50 turn out when `O=C(O)c1ccc2nc(CNC(=O)c3ccc4c(C5CCCCC5)c5n(c4c3)CCOc3ccccc3-5)[nH]c2c1` [Example 2-197, 2-{[(12-cyclohexyl-6,7-dihydro-5-oxa-7a-azadibenzo[a,e]azulene-9-carbonyl)amino]methyl}-3H-benzimidazole-5-carboxylic acid] was run?
A: The IC50 was under 100 nM.

Q: How did the IC50 turn out when `CC(C)(NC(=O)c1ccc2c(C3CCCCC3)c3n(c2c1)CCOc1ccccc1-3)c1nc2ccccc2[nH]1` [Example 2-198, N-[1-(1H-benzimidazol-2-yl)-1-methylethyl]-12-cyclohexyl-6,7-dihydro-5-oxa-7a-azadibenzo[a,e]azulene-9-carboxamide] was run?
A: Its IC50 is under 100 nM.

Q: With `CC(C)(NC(=O)c1ccc2c(C3CCCCC3)c3n(c2c1)CCOc1ccccc1-3)c1nc2cc(Cl)ccc2[nH]1` [Example 2-199, N-[1-(5-chloro-1H-benzimidazol-2-yl)-1-methylethyl]-12-cyclohexyl-6,7-dihydro-5-oxa-7a-azadibenzo[a,e]azulene-9-carboxamide] as the molecule, how does the IC50 read?
A: The IC50 was under 100 nM.

Q: Which IC50 does the source give for `Cc1ccc(NC(=O)C(C)(C)NC(=O)c2ccc3c(C4CCCCC4)c4n(c3c2)CCOc2ccccc2-4)cc1C(=O)O` [Example 2-200, 5-{2-[(12-cyclohexyl-6,7-dihydro-5-oxa-7a-azadibenzo[a,e]azulene-9-carbonyl)amino]-2-methylpropionylamino}-2-methylbenzoic acid] here?
A: Its IC50 is under 100 nM.

Q: How did the IC50 turn out when `CC(C)(NC(=O)c1ccc2c(C3CCCCC3)c3n(c2c1)CCOc1ccccc1-3)C(=O)Nc1cccc(C(=O)O)c1` [Example 2-201, 3-{2-[(12-cyclohexyl-6,7-dihydro-5-oxa-7a-azadibenzo[a,e]azulene-9-carbonyl)amino]-2-methylpropionylamino}benzoic acid] was run?
A: Its IC50 is under 100 nM.

Q: Which IC50 does the source give for `CC(C)(NC(=O)c1ccc2c(C3CCCCC3)c3n(c2c1)CCOc1ccccc1-3)C(=O)Nc1ccc(O)cc1` [Example 2-202, N-[1-(4-hydroxyphenylcarbamoyl)-1-methylethyl]-12-cyclohexyl-6,7-dihydro-5-oxa-7a-azadibenzo[a,e]azulene-9-carboxamide] here?
A: The IC50 was under 100 nM.

Q: `CC(C)(NC(=O)c1ccc2c(C3CCCCC3)c3n(c2c1)CCOc1ccccc1-3)C(=O)NCCc1ccc(O)cc1` [Example 2-203, N-{1-[2-(4-hydroxyphenyl)ethylcarbamoyl]-1-methylethyl}-12-cyclohexyl-6,7-dihydro-5-oxa-7a-azadibenzo[a,e]azulene-9-carboxamide] was tested. Which IC50 did it give?
A: Its IC50 is under 100 nM.

Q: `CC(C)(NC(=O)c1ccc2c(C3CCCCC3)c3n(c2c1)CCOc1ccccc1-3)C(=O)Nc1ccc(F)cc1` [Example 2-204, N-[1-(4-fluorophenylcarbamoyl)-1-methylethyl]-12-cyclohexyl-6,7-dihydro-5-oxa-7a-azadibenzo[a,e]azulene-9-carboxamide] was tested. Which IC50 did it give?
A: The IC50 was under 100 nM.

Q: For `O=C(NCCc1ccc(O)cc1)c1ccc2c(C3CCCCC3)c3n(c2c1)CCOc1ccccc1-3` [Example 2-205, N-[2-(4-hydroxyphenyl)ethyl]-12-cyclohexyl-6,7-dihydro-5-oxa-7a-azadibenzo[a,e]azulene-9-carboxamide], which IC50 is on record?
A: The IC50 was under 100 nM.

Q: For `O=C(NCC1(O)CCCCC1)c1ccc2c(C3CCCCC3)c3n(c2c1)CCOc1ccccc1-3` [Example 2-206, N-(1-hydroxycyclohexylmethyl)-12-cyclohexyl-6,7-dihydro-5-oxa-7a-azadibenzo[a,e]azulene-9-carboxamide], which IC50 is on record?
A: Its IC50 is 100 to 1000 nM.

Q: Which IC50 does the source give for `NC(=O)[C@H](Cc1ccc(O)cc1)NC(=O)c1ccc2c(C3CCCCC3)c3n(c2c1)CCOc1ccccc1-3` [Example 2-207, N—[(S)-1-carbamoyl-2-(4-hydroxyphenyl)ethyl]-12-cyclohexyl-6,7-dihydro-5-oxa-7a-azadibenzo[a,e]azulene-9-carboxamide] here?
A: The IC50 was under 100 nM.

Q: Which IC50 does the source give for `CC(C)(NC(=O)c1ccc2c(C3CCCCC3)c3n(c2c1)CCOc1ccccc1-3)C1CCC(C(=O)O)CC1` (centres unmarked) [Example 2-208, 4-{1-[(12-cyclohexyl-6,7-dihydro-5-oxa-7a-azadibenzo[a,e]azulene-9-carbonyl)amino]-1-methylethyl}cyclohexanecarboxylic acid] here?
A: The IC50 was 100 to 1000 nM.

Q: With `COC(=O)c1[nH]c(C(C)(C)NC(=O)c2ccc3c(C4CCCCC4)c4n(c3c2)CCOc2ccccc2-4)nc1C` [Example 2-209, methyl 2-{1-[(12-cyclohexyl-6,7-dihydro-5-oxa-7a-azadibenzo[a,e]azulene-9-carbonyl)amino]-1-methylethyl]-5-methyl-3H-imidazole-4-carboxylate] as the molecule, how does the IC50 read?
A: The IC50 was under 100 nM.

Q: How did the IC50 turn out when `CC(C)(CNC(=O)c1ccc(C(=O)O)cc1)NC(=O)c1ccc2c(C3CCCCC3)c3n(c2c1)CCOc1ccccc1-3` [Example 2-211, N-{2-[(12-cyclohexyl-6,7-dihydro-5-oxa-7a-azadibenzo[a,e]azulene-9-carbonyl)amino]-2-methylpropyl}terephthalamic acid] was run?
A: Its IC50 is 100 to 1000 nM.

Q: How did the IC50 turn out when `COC(=O)c1ccc(C(=O)NCC(C)(C)NC(=O)c2ccc3c(C4CCCCC4)c4n(c3c2)CCOc2ccccc2-4)cc1` [Example 2-212, methyl N-{2-[(12-cyclohexyl-6,7-dihydro-5-oxa-7a-azadibenzo[a,e]azulene-9-carbonyl)amino]-2-methylpropyl}-terephthalamate] was run?
A: Its IC50 is 100 to 1000 nM.

Q: `CN(C)Cc1ccc(NC(=O)C(C)(C)NC(=O)c2ccc3c(C4CCCCC4)c4n(c3c2)CCOc2ccccc2-4)cc1` [Example 2-213, N-[1-(4-dimethylaminomethylphenylcarbamoyl)-1-methylethyl]-12-cyclohexyl-6,7-dihydro-5-oxa-7a-azadibenzo[a,e]azulene-9-carboxamide] was tested. Which IC50 did it give?
A: Its IC50 is under 100 nM.

Q: How did the IC50 turn out when `CC(C)(NC(=O)c1ccc2c(C3CCCCC3)c3n(c2c1)CCOc1ccccc1-3)c1nc2cc(C(=O)O)ccc2[nH]1` [Example 2-214, 2-{1-[(12-cyclohexyl-6,7-dihydro-5-oxa-7a-azadibenzo[a,e]azulene-9-carbonyl)amino]-1-methylethyl}-1H-benzimidazole-5-carboxylic acid] was run?
A: The IC50 was under 100 nM.

Same assay, conditions: read-out: HCV polymerase inhibitory activity IC50; 25° C., 90 min; [5,6-3H]UTP incorporation into RNA

Q: For `COC(=O)C(Cc1c[nH]c2ccc(O)cc12)NC(=O)c1ccc2c(C3CCCCC3)c3n(c2c1)CCOc1ccccc1-3` (centres unmarked) [Example 2-210], which IC50 is on record?
A: The IC50 was under 100 nM.
